{"source": "patent US10570075B2", "about": "“Compounds” (DSM IP ASSETS B.V., priority 2015, dated 2020)", "target": "T1, human vitamin D receptor (VDR) (Homo sapiens, UniProt P11473)", "T1 construct": "expressed in transfected cells; host or cells: HEK293 cells (ATCC), transient polyethylene-imine-based transfection", "T1 sequence (P11473 127-423 limits assumed)": "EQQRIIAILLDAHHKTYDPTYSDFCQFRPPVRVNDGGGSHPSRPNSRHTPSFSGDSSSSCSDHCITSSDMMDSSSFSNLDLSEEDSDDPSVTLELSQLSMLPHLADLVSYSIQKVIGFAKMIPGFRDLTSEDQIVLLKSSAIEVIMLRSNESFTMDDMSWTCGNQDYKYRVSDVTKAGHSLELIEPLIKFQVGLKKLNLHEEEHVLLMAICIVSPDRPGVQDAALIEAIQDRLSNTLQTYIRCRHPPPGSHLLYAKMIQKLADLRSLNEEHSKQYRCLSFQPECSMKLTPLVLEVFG", "test": "Human vitamin D receptor (VDR) agonist activity, GAL4-VDR LBD luciferase transactivation assay in HEK293 cells", "format": "cell-based", "conditions": "transiently transfected HEK293 cells, VDR LBD-GAL4 DBD hybrid receptor, pFR-Luc luciferase reporter, 16 h incubation; read-out: Effective concentrations of half maximal activation (EC50)", "from_the_text": "By way of example, the human vitamin D receptor (VDR) agonist activity of the claimed compounds can be tested using a cell based transactivation assay in an eukaryotic cell line. After a co-transfection, using a reporter plasmid construct and a hybrid receptor construct containing the ligand-binding domain of the human VDR linked to the DNA-binding domain of the yeast transcription factor GAL4, the cultured cells were stimulated by the VDR agonists. The hybrid VDR-GAL4 receptor binds the VDR agonists and transactivates luciferase reporter expression through the GAL4-response elements in the promoter of the luciferase gene (reporter construct). The VDR agonist binding and transactivation is determined by measuring the luciferase luminescence activity. The effective concentration of half maximal activation (EC50) was determined for the VDR agonists by means of dose-response experiments. The details of the protocol method of this test according to the invention are described in the example section. […]"}
{"smiles": "CC/C(=C\\C=C\\C(O)(C(F)(F)F)C(F)(F)F)c1cccc(CCc2ccc(CO)c(C(C)O)c2)c1", "note": "(racemic) [I-a, (3E,5E)-1,1,1-trifluoro-6-(3-(3-(1-hydroxyethyl)-4-(hydroxymethyl)phenethyl)phenyl)-2-(trifluoromethyl)octa-3,5-dien-2-ol]", "values": [{"measurement": "EC50", "result": 8, "unit": "nM"}]}
